# Reference: patent US20090324752A1, “COSMETIC USE OF ACTIVE INGREDIENTS INCREASING THE PRODUCTION OF GROWTH FACTORS” (CHANEL PARFUMS BEAUTE, priority 2006, published 2009)
# System: Human dermal fibroblasts
# Test: Stimulation of fibroblast proliferation by PDGF and FGFb (CellTiter 96 Aqueous One, absorbance 490 nm)
# Type: cell-based
# Conditions: 24 h, compared to the control (untreated = 100.00)
# Method: Human dermal fibroblasts from a single donor were obtained from Cascade. At the 7rd passage, cells were seeded in 96 well plates and cultured in Dulbecco's modified Eagle medium DMEM (Gibco BRL, Gaithersburg, USA) supplemented with 10% foetal bovine serum (FBS, PAA, Linz, Austria), […] L-glutamine (Gibco) and 1% penicillin/streptomycin (Gibco). All cell culture was performed at […] in 5% CO2 and 95% air. This fibroblast culture was incubated by two growth factors ([…] and FGFb) at various concentrations for 24 h. After 24 hours incubation, 200 μL dosed media from 96-well plate were removed. CellTiter 96 Aqueous One Solution Reagent was used as described by the manufacturer. The absorbance at 490 nm was recorded using a plate reader to evaluate cell proliferation. The controls were the non treated cells. The experiment was conducted in 8 times by concentration.
Substance,Stimulation (%) of fibroblast proliferation (1 ng/ml),Stimulation (%) of fibroblast proliferation (10 ng/ml),Stimulation (%) of fibroblast proliferation (30 ng/ml)
PDGF,107.20%,154.37%,185.58%
"FGFb (157 aa): Basic Fibroblast Growth Factor (157 aa), growth factor added to fibroblast culture",141.22%,149.20%,–
